The source of these data is US8440658B2, “Cyclic urea inhibitors of 11β-hydroxysteroid dehydrogenase 1” (Vitae Pharmaceuticals, Inc., priority 2007, dated 2013).

A word on the IC50: it is the concentration at which inhibition is half-maximal. In general, inhibition refers to how much of the control response was suppressed. The low end stands for a weak effect, the high end for a strong effect.

Where only a bound is given, the exact number is not on record here.

In the assay the target is T1, human 11β-HSD1 (Homo sapiens, UniProt P28845).
T1 construct: expressed in transfected cells; host or cells: CHO cells (microsomes)
T1 sequence (P28845 whole entry): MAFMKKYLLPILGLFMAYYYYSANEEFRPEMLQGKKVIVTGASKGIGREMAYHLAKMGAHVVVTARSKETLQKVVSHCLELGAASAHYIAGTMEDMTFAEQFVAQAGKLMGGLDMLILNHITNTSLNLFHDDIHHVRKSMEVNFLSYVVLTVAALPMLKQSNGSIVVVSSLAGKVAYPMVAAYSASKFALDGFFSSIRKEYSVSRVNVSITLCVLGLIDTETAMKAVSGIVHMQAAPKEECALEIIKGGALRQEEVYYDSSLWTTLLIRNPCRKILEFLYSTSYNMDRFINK
In words: Inhibition of microsomal preparation of 11β-HSD1 (SPA, [3H]cortisone to [3H]cortisol). It counts as biochemical. The conditions noted are these: for Average % inhibition at 100 nM / inhibition at 0.1 µM: compound at 100 nM; for IC50: microsomes from CHO cells overexpressing human 11β-HSD1, 160 nM [3H]cortisone, read-out: Biological Test Example 1 (IC50 class). The protocol: The inhibition of microsomal preparation of 11β-HSD1 by compounds of the invention was measured essentially as previously described (K. Solly, S. S. Mundt, H. J. Zokian, G. J. Ding, A. Hermanowski-Vosatka, B. Strulovici, and W. Zheng, High-Throughput Screening of 11-Beta-Hydroxysteroid Dehydrogenase Type 1 in Scintillation Proximity Assay Format. Assay Drug Dev Technol 3 (2005) 377-384). All reactions were carried out at room temperature in 96 well clear flexible PET Microbeta plates (PerkinElmer). The assay begins by dispensing 49 μl of substrate solution (50 mM HEPES, pH 7.4, 100 mM KCl, 5 mM NaCl, 2 mM MgCl2, 2 mM NADPH and 160 nM [^3H]cortisone (1 Ci/mmol)) and mixing in 1 μL of the test compounds in DMSO previously diluted in half-log increments (8 points) starting at 0.1 mM. After a 10 minute pre-incubation, 50 μL of enzyme solution containing microsomes isolated from CHO cells overexpressing human 11β-HSD1 (10-20 μg/ml of total protein) was added, and the plates were incubated for 90 minutes at room temperature. The reaction was stopped by adding 50 μl of the SPA beads suspension containing 10 μM 18β-glycyrrhetinic acid, 5 mg/ml protein A coated YSi SPA beads (GE Healthcare) and 3.3 μg/ml of anti-cortisol antibody (East Coast Biologics) in Superblock buffer (Bio-Rad). The plates were shaken for 120 minutes at room temperature, and the SPA signal corresponding to [^3H]cortisol was measured on a Microbeta plate reader.

For the compound `C[C@H](N1CC[C@@](CCO)(c2ccc(F)cc2)OC1=O)C(C)(C)C` (single isomer, unassigned; isomer 2) [EXAMPLE 1 Isomer 2], the “Average % inhibition at 100 nM” value worked out at 36.5% and the IC50 was less than 100 nM.

On to `C[C@H](N1CC[C@](CCCO)(c2ccc(F)cc2)OC1=O)C(C)(C)C` [EXAMPLE 2], for which 0.1 µM produced 98.6% inhibition and the IC50 was less than 100 nM.

As for `C[C@H](N1CCC(CCCO)(c2ccccc2)OC1=O)C(C)(C)O` (single isomer, unassigned) [EXAMPLE 10 Isomer 2], the half-maximal inhibitory concentration (IC50) is greater than 100 nM. In addition, the “Average % inhibition at 100 nM” value (0.1 µM) came out at 13.4%.

`C[C@H](N1CC[C@](CCNS(C)(=O)=O)(c2ccc(F)cc2)OC1=O)C(C)(C)C` [EXAMPLE 5, N-(2-((S)-3-((S)-3,3-dimethylbutan-2-yl)-6-(4-fluorophenyl)-2-oxo-1,3-oxazinan-6-yl)ethyl)methanesulfonamide]: testing at 0.1 µM gave an inhibition of 91% and the half-maximal inhibitory concentration (IC50) was less than 100 nM.

Consider `C[C@H](N1CC[C@](CCCNS(C)(=O)=O)(c2ccc(F)cc2)OC1=O)C(C)(C)C` [EXAMPLE 6, N-(3-((R)-3-((S)-3,3-dimethylbutan-2-yl)-6-(4-fluorophenyl)-2-oxo-1,3-oxazinan-6-yl)propyl)methanesulfonamide], for which at 0.1 µM the inhibition was 95.9% and the IC50 is less than 100 nM.

Turning to `CC(C)(C)N1CCC(CCCO)(c2ccc(F)cc2)OC1=O` (single isomer, unassigned) [EXAMPLE 9 Isomer 2, 3-tert-butyl-6-(4-fluorophenyl)-6-(3-hydroxypropyl)-1,3-oxazinan-2-one], the half-maximal inhibitory concentration (IC50) was greater than 100 nM. In addition, under “0.1 µM”, the “Average % inhibition at 100 nM” value is reported as 25.45%.

Regarding `C=CCC1(c2ccccc2)CCN([C@@H](C)C(C)(C)O)C(=O)O1` (single isomer, unassigned) [EXAMPLE 12 Isomer 2], the half-inhibitory concentration (IC50) was less than 100 nM. Further, under “0.1 µM”, the “Average % inhibition at 100 nM” value is on record as 53.9%.

On to `C[C@H](N1CC[C@](CCC(N)=O)(c2ccc(F)cc2)OC1=O)C(C)(C)C` [EXAMPLE 4, 3-((R)-3-((S)-3,3-dimethylbutan-2-yl)-6-(4-fluorophenyl)-2-oxo-1,3-oxazinan-6-yl)propanamide], for which the inhibition at 0.1 µM was 91.8% and the 50% inhibitory concentration (IC50) is less than 100 nM.

On to `C=CCC1(c2ccccc2)CCN([C@@H](C)C(C)(C)O)C(=O)O1` (single isomer, unassigned) [EXAMPLE 12 Isomer 1], for which at 0.1 µM the inhibition was 47.2% and the IC50 is greater than 100 nM.

On to `CC(C)(C)N1CCC(CCCO)(c2ccccc2)OC1=O` (single isomer, unassigned) [EXAMPLE 8 Isomer 1, 3-tert-butyl-6-(3-hydroxypropyl)-6-phenyl-1,3-oxazinan-2-one], for which the IC50 was less than 100 nM. For the same compound, the “Average % inhibition at 100 nM” value (0.1 µM) is on record as 84.0%.

As to `CC(C)(C)N1CCC(CCCO)(c2ccc(F)cc2)OC1=O` (single isomer, unassigned) [EXAMPLE 9 Isomer 1, 3-tert-butyl-6-(4-fluorophenyl)-6-(3-hydroxypropyl)-1,3-oxazinan-2-one], the IC50 was less than 100 nM. The “Average % inhibition at 100 nM” value (0.1 µM) came to 74.7%.

Consider `CC(C)(C)N1CCC(CCCO)(c2ccccc2)OC1=O` (single isomer, unassigned) [EXAMPLE 8 Isomer 2, 3-tert-butyl-6-(3-hydroxypropyl)-6-phenyl-1,3-oxazinan-2-one], for which the concentration for half-maximal inhibition (IC50) is greater than 100 nM. Besides, the “Average % inhibition at 100 nM” value (0.1 µM) amounted to 22.1%.

Consider `C[C@H](N1CC[C@](CCO)(c2ccc(F)cc2)OC1=O)C(C)(C)C` (single isomer, unassigned; isomer 1) [EXAMPLE 1 Isomer 1], for which the “Average % inhibition at 100 nM” value is recorded as 94.4% and the IC50 was less than 100 nM.

As for `C[C@H](N1CC[C@](CCO)(c2ccc(F)cc2)NC1=O)C(C)(C)C` [EXAMPLE 7, (S)-1-((S)-3,3-dimethylbutan-2-yl)-4-(4-fluorophenyl)-4-(2-hydroxyethyl)tetrahydropyrimidin-2(1H)-one], at 0.1 µM the inhibition was 93.3% and the concentration for half-maximal inhibition (IC50) was less than 100 nM.

On to `C[C@H](N1CC[C@@](CCCO)(c2ccccc2)OC1=O)C(C)(C)C` [EXAMPLE 3 Isomer 2, (S)-3-((S)-3,3-dimethylbutan-2-yl)-6-(3-hydroxypropyl)-6-phenyl-1,3-oxazinan-2-one], for which testing at 0.1 µM gave an inhibition of 58.8% and the IC50 was less than 100 nM.

As to `C[C@H](N1CCC(CCCO)(c2ccccc2)OC1=O)C(C)(C)O` (single isomer, unassigned) [EXAMPLE 10 Isomer 1], the 50% inhibitory concentration (IC50) is less than 100 nM. The “Average % inhibition at 100 nM” value (0.1 µM) is 66.8%.

As to `C[C@H](N1CC[C@](CCCO)(c2ccc(F)cc2)NC1=O)C(C)(C)C` [EXAMPLE 11, (R)-1-((S)-3,3-dimethylbutan-2-yl)-4-(4-fluorophenyl)-4-(3-hydroxypropyl)tetrahydropyrimidin-2(1H)-one], the inhibition at 0.1 µM was 97% and the concentration for half-maximal inhibition (IC50) was less than 100 nM.

Take `C[C@H](N1CC[C@](CCCO)(c2ccccc2)OC1=O)C(C)(C)C` [EXAMPLE 3 Isomer 1]: testing at 0.1 µM gave an inhibition of 94% and the half-maximal inhibitory concentration (IC50) was less than 100 nM.
